From ChEMBL document CHEMBL1201862, “PubChem BioAssay data set” (2004)
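Five concentrations, 48 hours, 96-well plates. GI50 = concentration required for 50% inhibition of growth.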 The source made the active and inactive calls. No stated cut-off is given here; in the data, active = GI50 up to about 1.1 µM and inactive = higher.

Tests used:
Assay in all cases: NCI tumour cell line growth inhibition, 48 h
[1] = test system: A498
[2] = test system: A549
[3] = test system: CCRF-CEM
[4] = test system: DU-145
[5] = test system: HCT-116
[6] = test system: HCT-15
[7] = test system: M14
[8] = test system: MDA-MB-231
[9] = test system: MOLT-4
[10] = test system: Malme-3M
[11] = test system: NCI-H23
[12] = test system: NCI-H522
[13] = test system: SF-539
[14] = test system: SN12C
[15] = test system: SR
[16] = test system: SW-620
[17] = test system: T47D
[18] = test system: U-251
[19] = test system: UACC-257
[20] = test system: HOP-92

| Compound | GI50 [1] | GI50 [2] | GI50 [3] | GI50 [4] | GI50 [5] | GI50 [6] | GI50 [7] | GI50 [8] | GI50 [9] | GI50 [10] | GI50 [11] | GI50 [12] | GI50 [13] | GI50 [14] | GI50 [15] | GI50 [16] | GI50 [17] | GI50 [18] | GI50 [19] | GI50 [20] |
| --- | --- | --- | --- | --- | --- | --- | --- | --- | --- | --- | --- | --- | --- | --- | --- | --- | --- | --- | --- | --- |
| O=C(Nc1nnc(-c2ccccc2)o1)C(SC(=S)N1CCOCC1)c1ccccc1 (centres undefined) | 23.8 µM (inactive) | 22.6 µM (inactive) | 5.75 µM (inactive) | 37.2 µM (inactive) | 22.5 µM (inactive) | 5.43 µM | 20.4 µM (inactive) | 42 µM (inactive) | 7.98 µM (inactive) | 55.6 µM (inactive) | 18.9 µM (inactive) | 23.2 µM (inactive) | 33.3 µM (inactive) | 12.6 µM (inactive) | 9.75 µM (inactive) | 42.5 µM (inactive) | 39.8 µM (inactive) | 18.6 µM (inactive) | 35.6 µM (inactive) | – |
| CC(C)c1ccc(NC(=S)NC(=O)c2ccccc2)cc1 | 22.9 µM (inactive) | 30.8 µM (inactive) | 11.4 µM (inactive) | 23.2 µM (inactive) | 22.2 µM (inactive) | 17.6 µM | 17.3 µM (inactive) | 26.6 µM (inactive) | 13.1 µM (inactive) | 24.5 µM (inactive) | 23 µM (inactive) | 17.4 µM (inactive) | 36.2 µM (inactive) | 34.6 µM (inactive) | – | 22.3 µM (inactive) | 18.7 µM (inactive) | 26.9 µM (inactive) | 14.8 µM (inactive) | 40.9 µM (inactive) |
| Cc1c(/N=N/c2ccccc2)c(-c2ccccc2)n(C2OC(CO)C(O)C(O)C2O)c(=S)c1C#N (centres undefined) | 14.4 µM (inactive) | 5.83 µM (inactive) | 2.32 µM (inactive) | 6.17 µM (inactive) | – | 5.01 µM | 6.5 µM (inactive) | 10 µM (inactive) | 1.95 µM (inactive) | 6.67 µM (inactive) | 3.36 µM (inactive) | 3.5 µM (inactive) | 5.13 µM (inactive) | 6.22 µM (inactive) | > 100 µM (inactive) | 4.97 µM (inactive) | 0.245 µM (active) | 4.08 µM (inactive) | – | – |
| OCCN(CCO)c1ccc2c(-c3ccccc3)cc(N(CCO)CCO)nc2n1 | 54.2 µM (inactive) | > 100 µM (inactive) | > 100 µM (inactive) | > 100 µM (inactive) | > 100 µM (inactive) | > 100 µM | > 100 µM (inactive) | > 100 µM (inactive) | > 100 µM (inactive) | > 100 µM (inactive) | > 100 µM (inactive) | > 100 µM (inactive) | – | > 100 µM (inactive) | 20 µM (inactive) | > 100 µM (inactive) | > 100 µM (inactive) | > 100 µM (inactive) | > 100 µM (inactive) | – |
| CCOC(=O)/C=C(\C(=O)OCC)n1cc(C)c(=O)n(Cc2cnnn2COCCOC(C)=O)c1=O | 20.8 µM (inactive) | 21.6 µM (inactive) | 1.75 µM (inactive) | 21.2 µM (inactive) | 9.42 µM (inactive) | 3.44 µM | 20.7 µM (inactive) | 19.8 µM (inactive) | 2.57 µM (inactive) | 1.48 µM (inactive) | 17.5 µM (inactive) | 1.21 µM (inactive) | 2.2 µM (inactive) | 16 µM (inactive) | – | 2.18 µM (inactive) | 5.78 µM (inactive) | 17.7 µM (inactive) | 13.4 µM (inactive) | 1.92 µM (inactive) |
| Cc1csc(NNC(=O)Nc2ccccc2)n1 | > 100 µM (inactive) | > 100 µM (inactive) | > 100 µM (inactive) | > 100 µM (inactive) | > 100 µM (inactive) | > 100 µM | > 100 µM (inactive) | > 100 µM (inactive) | – | > 100 µM (inactive) | > 100 µM (inactive) | > 100 µM (inactive) | > 100 µM (inactive) | > 100 µM (inactive) | > 100 µM (inactive) | > 100 µM (inactive) | > 100 µM (inactive) | > 100 µM (inactive) | > 100 µM (inactive) | – |
| COc1ccc(N[S+]([O-])CCCc2ccccc2)cc1 (centres undefined) | – | 65 µM (inactive) | > 100 µM (inactive) | > 100 µM (inactive) | > 100 µM (inactive) | 64 µM | – | > 100 µM (inactive) | > 100 µM (inactive) | > 100 µM (inactive) | > 100 µM (inactive) | 24.1 µM (inactive) | > 100 µM (inactive) | > 100 µM (inactive) | 88.5 µM (inactive) | > 100 µM (inactive) | 14.7 µM (inactive) | 72.3 µM (inactive) | 65 µM (inactive) | – |
| COc1ccc(N[S+]([O-])c2ccc(Cl)cc2)cc1 (centres undefined) | – | 23.5 µM (inactive) | 50.5 µM (inactive) | 43.5 µM (inactive) | 14.5 µM (inactive) | 19.5 µM | 94 µM (inactive) | 50.4 µM (inactive) | 20.6 µM (inactive) | 24.3 µM (inactive) | 50.5 µM (inactive) | 16.2 µM (inactive) | 11.9 µM (inactive) | > 100 µM (inactive) | 13.4 µM (inactive) | 49.1 µM (inactive) | 10.1 µM (inactive) | 11.8 µM (inactive) | 17.9 µM (inactive) | – |
| O=c1[nH]c(=O)n(C2CC(O)C(CO)O2)cc1OCCc1ccccc1 (centres undefined) | – | > 100 µM (inactive) | > 100 µM (inactive) | > 100 µM (inactive) | > 100 µM (inactive) | > 100 µM | > 100 µM (inactive) | > 100 µM (inactive) | > 100 µM (inactive) | > 100 µM (inactive) | > 100 µM (inactive) | > 100 µM (inactive) | – | > 100 µM (inactive) | > 100 µM (inactive) | – | > 100 µM (inactive) | > 100 µM (inactive) | > 100 µM (inactive) | – |
| O=c1/c(=C/c2ccc([N+](=O)[O-])o2)sc2n1[C@@H](c1ccc(Cl)cc1)C=C(c1cc(F)c(Cl)cc1Cl)N=2 | 30.7 µM (inactive) | 30.3 µM (inactive) | 4.83 µM (inactive) | 17.7 µM (inactive) | 3.56 µM (inactive) | 8.18 µM | 14.6 µM (inactive) | 5.07 µM (inactive) | 12.9 µM (inactive) | 17.9 µM (inactive) | 15.3 µM (inactive) | 18.3 µM (inactive) | 22.4 µM (inactive) | 5.5 µM (inactive) | – | 4.91 µM (inactive) | 19 µM (inactive) | 8.02 µM (inactive) | 15.4 µM (inactive) | 12.9 µM (inactive) |
| Clc1cc2nn(C3CCCCO3)nc2cc1Cl (centres undefined) | – | > 100 µM (inactive) | > 100 µM (inactive) | > 100 µM (inactive) | > 100 µM (inactive) | > 100 µM | > 100 µM (inactive) | > 100 µM (inactive) | > 100 µM (inactive) | > 100 µM (inactive) | > 100 µM (inactive) | > 100 µM (inactive) | > 100 µM (inactive) | > 100 µM (inactive) | > 100 µM (inactive) | – | > 100 µM (inactive) | > 100 µM (inactive) | > 100 µM (inactive) | – |
| Nc1nc(N)c2ncn(Cc3ccccc3)c2n1 | > 100 µM (inactive) | > 100 µM (inactive) | > 100 µM (inactive) | > 100 µM (inactive) | > 100 µM (inactive) | > 100 µM | > 100 µM (inactive) | > 100 µM (inactive) | > 100 µM (inactive) | > 100 µM (inactive) | > 100 µM (inactive) | > 100 µM (inactive) | > 100 µM (inactive) | > 100 µM (inactive) | – | > 100 µM (inactive) | > 100 µM (inactive) | > 100 µM (inactive) | > 100 µM (inactive) | > 100 µM (inactive) |
| C=CC(O)(CBr)CCC(Br)C(C)(C)Cl (centres undefined) | > 10 µM (inactive) | > 10 µM (inactive) | > 10 µM (inactive) | > 10 µM (inactive) | > 10 µM (inactive) | > 10 µM | > 10 µM (inactive) | > 10 µM (inactive) | > 10 µM (inactive) | > 10 µM (inactive) | > 10 µM (inactive) | > 10 µM (inactive) | > 10 µM (inactive) | > 10 µM (inactive) | – | > 10 µM (inactive) | > 10 µM (inactive) | > 10 µM (inactive) | > 10 µM (inactive) | > 10 µM (inactive) |
| CC12CC(C#N)(C#N)C(C#N)(CO1)C(=N)O2 (centres undefined) | > 100 µM (inactive) | > 100 µM (inactive) | 26.9 µM (inactive) | > 100 µM (inactive) | 64.3 µM (inactive) | 40.6 µM | > 100 µM (inactive) | > 100 µM (inactive) | 54.3 µM (inactive) | 24.2 µM (inactive) | > 100 µM (inactive) | – | > 100 µM (inactive) | > 100 µM (inactive) | – | 53.6 µM (inactive) | > 100 µM (inactive) | > 100 µM (inactive) | > 100 µM (inactive) | 52.7 µM (inactive) |
| COc1ccc(/N=N/c2c(C)c(C#N)c(=S)n(C3OC(CO)C(O)C(O)C3O)c2-c2ccccc2)cc1 (centres undefined) | 20.9 µM (inactive) | 36.7 µM (inactive) | 20 µM (inactive) | 32.1 µM (inactive) | 30.1 µM (inactive) | 34 µM | 24.9 µM (inactive) | 51.1 µM (inactive) | 9.04 µM (inactive) | 30.6 µM (inactive) | 28.4 µM (inactive) | – | 42.7 µM (inactive) | 32.3 µM (inactive) | 32.1 µM (inactive) | 26.1 µM (inactive) | 27.1 µM (inactive) | 29 µM (inactive) | 48.8 µM (inactive) | – |
| CC(C)Oc1c(C2(c3ccccc3)SCCCS2)c(=O)c1=O | > 100 µM (inactive) | > 100 µM (inactive) | 45.6 µM (inactive) | > 100 µM (inactive) | > 100 µM (inactive) | > 100 µM | > 100 µM (inactive) | > 100 µM (inactive) | > 100 µM (inactive) | – | > 100 µM (inactive) | 24.7 µM (inactive) | > 100 µM (inactive) | > 100 µM (inactive) | – | > 100 µM (inactive) | > 100 µM (inactive) | > 100 µM (inactive) | > 100 µM (inactive) | > 100 µM (inactive) |
